Common to all, as to format: cell-based
The subject of one experiment is IL-1β. Put plainly: PBMC assay, LPS-induced IL-1β (Meso Scale). To be noted: Homo sapiens, PBMCs, 100 ng/mL LPS 18-24 hrs; for inhibition at 0.1 µM: compound at 0.1 μM; for inhibition at 1 µM: compound at 1 μM; for inhibition at 10 µM: compound at 10 μM. As to the method:
FIG. 1 represents the activity against IL-1-beta in peripheral blood mononuclear cells (PBMCs), plated in 96 well plates and pretreated with compound for 1 hour and then induced with 100 ng/mL LPS for 18-24 hrs. Cytokines in the media were measured according to MesoScale protocol. Negative control wells were treated with DMSO. Compound activity is measured as a percentage of LPS-induced activity.
(§1) Frozen primary blood mononuclear cells (PBMCs) were purchased from AllCells. Cells were quick thawed, washed once with RPMI-1640/10% FBS.
(§2) 1% Penicillin/1% Streptomycin and plated in 96 well plates at 200,000 cells per well. Cells were pretreated with DMSO only, or Compound 1 for 1 hour and then induced with 100 ng/mL lipopolysaccharide (LPS) for 18-24 hrs. The supernatant was analyzed for IL-1 beta, IL-6, and TNFα, using Meso Scale assay according to manufacturer's protocol. The negative control wells were treated with DMSO.
(§3) Compound activity was measured as fold difference from the DMSO control. IL-1β activity is shown in FIG. 1; IL-6 activity is shown in FIG. 2; TNFα activity is shown in FIG. 3; and IL-2 activity is shown in FIG. 4. Additional data for compounds (shown as percent inhibition) at 10 μM is shown in Table 1; at 1 μM in Table 2; and at 0.1 μM in Table 3.

The next experiment deals with IL-6. As to the kind of experiment: PBMC assay, LPS-induced IL-6 (Meso Scale). To be noted: Homo sapiens, PBMCs, 100 ng/mL LPS 18-24 hrs; for inhibition at 0.1 µM: compound at 0.1 μM; for inhibition at 1 µM: compound at 1 μM; for inhibition at 10 µM: compound at 10 μM. As to the method:
FIG. 2 represents the activity against IL-6 in peripheral blood mononuclear cells (PBMCs), plated in 96 well plates and pretreated with compound for 1 hour and then induced with 100 ng/mL LPS for 18-24 hrs. Cytokines were measured according to MesoScale protocol. Negative control wells were treated with DMSO. Compound activity was measured as a percentage of LPS-induced activity.
as §1, §2, §3

In another experiment the test system is TNFα. As to the kind of experiment: PBMC assay, LPS-induced TNFα (Meso Scale). To be noted: Homo sapiens, PBMCs, 100 ng/mL LPS 18-24 hrs; for inhibition at 0.1 µM: compound at 0.1 μM; for inhibition at 1 µM: compound at 1 μM; for inhibition at 10 µM: compound at 10 μM. The protocol:
FIG. 3 represents the activity against TNFα in peripheral blood mononuclear cells (PBMCs), plated in 96 well plates and pretreated with compound for 1 hour and then induced with 100 ng/mL LPS for 18-24 hrs. Cytokines in the media were measured according to MesoScale protocol. The negative control wells were treated with DMSO. Compound activity is measured as a percentage of LPS-induced activity.
as §1, §2, §3

A further experiment concerns IL-2. As to the kind of experiment: Anti-CD3-induced IL-2 secretion in PBMCs (Mesoscale). To be noted: Homo sapiens, PBMC, anti-CD3 stimulated PBMCs, 24 hr, vs DMSO control, read-out: IL-2 Fold Change; for fold induction at 0.1 µM: compound at 0.1 μM; for fold induction at 1 µM: compound at 1 μM; for fold induction at 10 µM: compound 10 μM. As to the method: FIG. 4 represents Anti-CD3-induced IL-2 secretion in PBMCs. 1 μg/mL anti-CD3 (OKT-3) antibody in PBS coated onto 96-well plates overnight at 4° C. Approximately, 550,000 PBMCs were added to each well, followed by addition of DMSO only (control) or Compound 1. Induction was measured after 24 hrs as fold difference from the DMSO stimulated control.
as §1
For the IL-2 analysis, 96 well plates were precoated with 1 μg/mL anti-human CD3 antibody (OKT3, eBioscience Inc.). After washing with PBS, Compound 1 was added (50 μL/well) followed by PBMCs diluted at 3-4 million cells/mL (150 μL/well). Plates were incubated for 24 hr and the supernatants collected for Mesoscale IL-2 analysis.
as §3

The subject of another experiment is Molm-13 cells. Put plainly: Cell viability assay (CellTiter-Glo), Molm-13 proliferation. To be noted: Homo sapiens, MOLM-13, 72 h, 3 days; for inhibition at 1 µM: compound at 1 μM; for inhibition at 10 µM: compound at 10 μM; for inhibition at 0.1 µM: compound at 0.1 μM. The protocol: (§4) Molm-13 and MV-4-11 cells were cultivated in RPMI-1640 (10% FBS/1% pen-strep) and were plated in white walled 96-well plates at 20,000 cells/well.
(§5) Cells were treated with compound at the indicated concentration or DMSO (control) and the cultures were incubated for 3 days at 37° C. and 5% CO2. Following the incubation period, 100 μL of CellTiterGlow (CTG) reagent (CellTiter-Glo® Luminescent Cell Viability Assay, Promega (Madison, Wis.)) was added to each well. Following a 10 min incubation with shaking, luminescence was measured using a Victor Wallac Luminometer.

Another experiment has as its system MV-4-11 cells. Put plainly: Cell viability assay (CellTiter-Glo), MV-4-11 proliferation. To be noted: Homo sapiens, MV4-11, 72 h, 3 days; for inhibition at 1 µM: compound at 1 μM; for inhibition at 10 µM: compound at 10 μM. As to the method:
as §4, §5
(In general: Cellular ATP, detected with luciferase, serves as a proxy for viable cell number.)

Take `O=C1CCC[C@H](N2Cc3c(OCc4ccc(CN5CCOc6ccccc65)cc4)cccc3C2=O)C(=O)N1` [Compound 2, (S)-3-(4-((4-((2,3-dihydro-4H-benzo[b][1,4]oxazin-4-yl)methyl)benzyl)oxy)-1-oxoisoindolin-2-yl)azepane-2,7-dione]: the inhibition at 0.1 µM in the experiment on IL-1β came to 72%; in the experiment on IL-6, 43%; in the experiment on TNFα, 81%. Further, the inhibition at 1 µM in the experiment with IL-1β stood at 86%; in the experiment with IL-6 it was 67%; in the experiment with TNFα, 90%; in the experiment with Molm-13 cells it was 5%; in the experiment with MV-4-11 cells it was 6%. For the same compound, the fold induction at 0.1 µM in the experiment on IL-2 is 1.3. In addition, the fold induction at 1 µM in the experiment on IL-2 turned out to be 2.3. The inhibition at 10 µM with Molm-13 cells came out at 30%; in the experiment with MV-4-11 cells it was 16%.

As for `O=C1CCC[C@H](N2Cc3c(OCc4ccc(CN5CCOCC5)c(Cl)c4)cccc3C2=O)C(=O)N1` [Compound 3], the inhibition at 0.1 µM in the experiment with IL-1β was 91%; in the experiment with IL-6 it was 72%; with TNFα, 91%. The inhibition at 1 µM was determined as 93% in the experiment with IL-1β; 79% with IL-6; 93% in the experiment with TNFα; 1% in the experiment on Molm-13 cells; 0% in the experiment with MV-4-11 cells. Also, the inhibition at 10 µM with IL-1β is 93%; in the experiment with IL-6, 77%; in the experiment on TNFα it was 94%; in the experiment with Molm-13 cells, 29%; with MV-4-11 cells, 20%. In the experiment with IL-2, the fold induction at 0.1 µM was determined as 2. Besides, the fold induction at 1 µM in the experiment with IL-2 stood at 0.7.

With `NCc1ccc(COc2cccc3c2CN([C@H]2CCCC(=O)NC2=O)C3=O)cc1` [Compound 5, trifluoroacetic acid], the inhibition at 0.1 µM in the experiment on IL-1β is 64%; in the experiment on IL-6, 37%; with TNFα, 55%. The fold induction at 0.1 µM with IL-2 came out at 1.2. The fold induction at 1 µM with IL-2 was determined as 2.1. The inhibition at 10 µM in the experiment with Molm-13 cells turned out to be 40%; with MV-4-11 cells, 3%. In the experiment with MV-4-11 cells, this compound gave an inhibition at 1 µM of 1%.

`Cc1cnc(Nc2ccc(OCCCNCC(=O)NCc3ccc(COc4cccc5c4CN([C@H]4CCCC(=O)NC4=O)C5=O)cc3)cc2)nc1Nc1cccc(S(=O)(=O)NC(C)(C)C)c1` [Compound 6]: the inhibition at 0.1 µM was 68% in the experiment on IL-1β, 42% with IL-6 and 62% in the experiment on TNFα. Also, the inhibition at 1 µM in the experiment on IL-1β is 92%; in the experiment on IL-6, 76%; in the experiment with TNFα, 83%; in the experiment on MV-4-11 cells, 0%. Further, in the experiment with IL-2, the fold induction at 0.1 µM came out at 1. For the same compound, in the experiment with IL-2, the fold induction at 1 µM was determined as 2.5. Moreover, the inhibition at 10 µM with Molm-13 cells turned out to be 91%; with MV-4-11 cells, 76%.

As to `O=C1CCC[C@H](N2Cc3c(OCc4ccc(C(=O)N5CCOCC5)cc4)cccc3C2=O)C(=O)N1` [Compound 8, (S)-3-{4-[(p-Morpholinocarbonlphenyl)methoxy]-2-isoindolinoyl}-2,7-azepanedione], the inhibition at 0.1 µM was 73% in the experiment with IL-1β, 56% with IL-6 and 63% with TNFα. Besides, the fold induction at 0.1 µM in the experiment with IL-2 stood at 1.8. Besides, the fold induction at 1 µM in the experiment with IL-2 was determined as 2.3. Further, the results for the inhibition at 10 µM in the experiment on Molm-13 cells and with MV-4-11 cells were 16% and 0%, respectively. In the experiment with MV-4-11 cells, testing at 1 µM gave an inhibition of 0%.

In the case of `NCc1cccc(COc2cccc3c2CN([C@H]2CCCC(=O)NC2=O)C3=O)c1` [Compound 9, trifluoroacetic acid], the inhibition at 0.1 µM in the experiment on IL-1β stood at 74%; in the experiment on IL-6 it was 51%; in the experiment on TNFα, 62%. The fold induction at 0.1 µM in the experiment with IL-2 was determined as 1.6. Besides, in the experiment on IL-2, the fold induction at 1 µM was 1.6. The inhibition at 10 µM in the experiment on Molm-13 cells was found to be 34%; in the experiment with MV-4-11 cells, 10%. This compound came in with an inhibition at 1 µM in the experiment with MV-4-11 cells of 2%.

As for `O=C1CCC[C@H](N2Cc3c(OCc4cccc(CN5CCOCC5)c4)cccc3C2=O)C(=O)N1` [Compound 10], the results for the inhibition at 0.1 µM in the experiment with IL-1β, in the experiment on IL-6 and with TNFα were 52%, 27% and 48%, respectively. Further, the fold induction at 0.1 µM in the experiment with IL-2 amounted to 1.9. The fold induction at 1 µM in the experiment with IL-2 was 2.1. In addition, the inhibition at 10 µM in the experiment with Molm-13 cells worked out at 38%; in the experiment with MV-4-11 cells, 35%. This compound showed an inhibition at 1 µM with MV-4-11 cells of 1%.

Regarding `Cc1cnc(Nc2ccc(OCCCNC(=O)NCc3ccc(COc4cccc5c4CN([C@H]4CCCC(=O)NC4=O)C5=O)cc3)cc2)nc1Nc1cccc(S(=O)(=O)NC(C)(C)C)c1` [Compound 13], the inhibition at 1 µM stood at 51% in the experiment with IL-1β; 59% with IL-6; 84% in the experiment with TNFα; 29% in the experiment on Molm-13 cells; 0% in the experiment on MV-4-11 cells. Further, in the experiment on IL-2, the fold induction at 10 µM was found to be 0.1. The fold induction at 1 µM in the experiment with IL-2 came out at 0.3. Also, the inhibition at 10 µM in the experiment on MV-4-11 cells was determined as 50%.

Consider `Cc1cnc(Nc2ccc(OCCCNC(=O)NCc3ccc(COc4cc(F)cc5c4CN([C@H]4CCC(=O)NC4=O)C5=O)cc3)cc2)nc1Nc1cccc(S(=O)(=O)NC(C)(C)C)c1` [Compound 18], for which the inhibition at 1 µM with IL-1β came to 80%; with IL-6 it was 49%; with TNFα, 83%; in the experiment on MV-4-11 cells, 99%. Moreover, the inhibition at 10 µM in the experiment on IL-1β was 83%; with IL-6, 45%; in the experiment with TNFα, 89%; with Molm-13 cells it was 99%; in the experiment on MV-4-11 cells, 99%. Besides, the fold induction at 10 µM in the experiment on IL-2 was 3.3. The fold induction at 1 µM with IL-2 came out at 3.2.

Take `Cc1cnc(Nc2ccc(OCCCNC(=O)NCc3ccc(COc4cccc5c4CN([C@H]4CCC(=O)NC4=O)C5=O)cc3)cc2)nc1Nc1cccc(S(=O)(=O)NC(C)(C)C)c1` [Compound 20]: the inhibition at 0.1 µM in the experiment on IL-1β worked out at 30%; with IL-6 it was 1%; in the experiment on TNFα, 43%; in the experiment with Molm-13 cells, 93%. For the same compound, the inhibition at 1 µM in the experiment on IL-1β was 43%; in the experiment on IL-6, 5%; in the experiment on TNFα, 57%; in the experiment on Molm-13 cells, 99%; with MV-4-11 cells, 77%. For the same compound, the fold induction at 0.1 µM in the experiment with IL-2 is 0.9. Moreover, the fold induction at 1 µM in the experiment with IL-2 amounted to 1.4. This compound gave an inhibition at 10 µM with MV-4-11 cells of 88%.

Take `NCc1ccc2c(c1OCc1ccc(CN3CCOCC3)cc1)CN([C@H]1CCCC(=O)NC1=O)C2=O` [Compound 22, ditrifluoroacetic acid]: the inhibition at 0.1 µM in the experiment with IL-1β amounted to 69%; with IL-6 it was 23%; in the experiment with TNFα, 78%; in the experiment with Molm-13 cells, 31%. Moreover, the inhibition at 1 µM in the experiment with IL-1β came out at 74%; in the experiment on IL-6, 27%; in the experiment on TNFα it was 80%; in the experiment with Molm-13 cells, 56%; in the experiment on MV-4-11 cells, 2%. Further, in the experiment with IL-2, the fold induction at 0.1 µM turned out to be 2. Also, the fold induction at 1 µM with IL-2 came to 2.4. In the experiment with MV-4-11 cells, this compound had an inhibition at 10 µM of 4%.

As usually defined, the inhibition is the drop in the measured response relative to a control, in per cent.
